In patent publication USRE41149E1, “Optically active pyridonecarboxylic acid derivatives” (Daiichi Sankyo Company, Limited, priority 1988, dated 2010):
Counter-ions that a name gives are not always drawn.

Key:
Experiment in all cases: Antimicrobial activity (MIC), standard method of Nippon Kagakuryoho Gakkai
Type in all cases: cell-based
E. coli., NIHJ = tested on: E. coli., NIHJ
Protocol: (§1) Antimicrobial activity of the optically active compounds prepared in Examples was evaluated in accordance with the standard method specified by Nippon […], and results obtained are shown in Table 1 which precedes the claims herein in terms of minimum inhibitory concentration (MIC: […]).

Pr. vulgaris, 08601 = tested on: Pr. vulgaris, 08601
Protocol: as §1

Ps. aeruginosa, 32104 = conditions: for Antimicrobial activity (MIC): Ps. aeruginosa
Protocol: as §1

Ps. aeruginosa, 32121 = conditions: for Antimicrobial activity (MIC): Ps. aeruginosa
Protocol: as §1

S. aureus, 209 P = tested on: S. aureus, 209 P
Protocol: as §1

S. epidermidis, 56500 = conditions: for Antimicrobial activity (MIC): S. epidermidis
Protocol: as §1

Ser. marcescens, 10100 = conditions: for Antimicrobial activity (MIC): Ser. marcescens
Protocol: as §1

[1] = tested on: Str. faecalis, ATCC 19433; conditions: for Antimicrobial activity (MIC): Str. faecalis
Protocol: as §1

| Molecule | MIC (E. coli., NIHJ; Escherichia coli) [µg/mL] | MIC (Pr. vulgaris, 08601; Proteus vulgaris) [µg/mL] | MIC (Ps. aeruginosa, 32104; Pseudomonas aeruginosa, 32104, Ps. aeruginosa) [µg/mL] | MIC (Ps. aeruginosa, 32121; Pseudomonas aeruginosa, 32121, Ps. aeruginosa) [µg/mL] | MIC (S. aureus, 209 P; Staphylococcus aureus) [µg/mL] | MIC (S. epidermidis, 56500; Staphylococcus epidermidis, 56500, S. epidermidis) [µg/mL] | MIC (Ser. marcescens, 10100; Serratia marcescens, 10100, Ser. marcescens) [µg/mL] | MIC ([1]; Enterococcus faecalis, ATCC19433, Str. faecalis) [µg/mL] | Antimicrobial activity (MIC) (E. coli., NIHJ) [µg/mL] | Antimicrobial activity (MIC) (Pr. vulgaris, 08601) [µg/mL] | Antimicrobial activity (MIC) (Ps. aeruginosa, 32104) [µg/mL] | Antimicrobial activity (MIC) (Ps. aeruginosa, 32121) [µg/mL] | Antimicrobial activity (MIC) (S. aureus, 209 P) [µg/mL] | Antimicrobial activity (MIC) (S. epidermidis, 56500) [µg/mL] | Antimicrobial activity (MIC) (Ser. marcescens, 10100) [µg/mL] | Antimicrobial activity (MIC) [1] [µg/mL] |
| --- | --- | --- | --- | --- | --- | --- | --- | --- | --- | --- | --- | --- | --- | --- | --- | --- |
| Cc1c(N2CC[C@@H]([C@H](C)N)C2)c(F)cc2c(=O)c(C(=O)O)cn(C3CC3F)c12 (single isomer, unassigned; (-)) [Compound 54b, hydrochloride] | < 0.1 | < 0.1 | 0.2 | 0.1 | < 0.1 | < 0.1 | 0.1 | 0.1 | – | – | – | – | – | – | – | – |
| Nc1c(F)c(N2CC(N)C3(CC3)C2)c(F)c2c1c(=O)c(C(=O)O)cn2[C@@H]1C[C@@H]1F (relative stereo) [Compound 56b, 5-Amino-7-(7-amino-5-azaspiro[2,4]heptan-5-yl)-6,8-difluoro-1-(1,2-cis-2-fluoro-1-cyclopropyl) 4-oxo-1,4-dihydroquinoline-3-carboxylic acid] | – | – | – | – | – | – | – | – | <0.1 | <0.1 | <0.1 | <0.1 | <0.1 | <0.1 | <0.1 | 0.10 |
| (−)-7-[3-(S)-Amino-1-pyrrolidinyl]-8-chloro-6-fluoro-1-(1,2-cis-2-fluoro-1-cyclopropyl)-4-oxo-1,4-dihydroquinoline-3-carboxylic acid [Compound 13b] | – | – | – | – | – | – | – | – | <0.1 | <0.1 | <0.1 | <0.1 | <0.1 | <0.1 | <0.1 | 0.20 |
| N[C@H]1CCN(c2cc3c(cc2F)c(=O)c(C(=O)O)cn3[C@@H]2C[C@@H]2F)C1 (relative stereo) [Compound 9a, 7-[3-(S)-Amino-1-pyrrolidinyl]-6-fluoro-1-(1,2-cis-2-fluorocyclopropyl)-4-oxo-1,4-dihydroquinoline-3-carboxylic acid] | – | – | – | – | – | – | – | – | 0.10 | <0.1 | 0.39 | 0.10 | 0.10 | 0.39 | 0.20 | 1.57 |
| C[C@H]1C[C@H](N)CN1c1nc2c(cc1F)c(=O)c(C(=O)O)cn2[C@@H]1C[C@@H]1F (relative stereo) [Compound 31b, 7-[4-(S)-Amino-2-(S)-methyl-1-pyrrolidinyl]-6-fluoro-1-(1,2-cis-2-fluoro-1-cyclopropyl)-4-oxo-1,4-dihydro-1,8-naphthyridine-3-carboxylic acid] | – | – | – | – | – | – | – | – | <0.1 | <0.1 | 0.20 | 0.10 | <0.1 | 0.20 | 0.10 | 0.39 |
| (−)-5-Amino-7-[3-(S)-amino-1-pyrrolidinyl]-6,8-difluoro-1-(1,2-cis-2-fluoro-1-cyclopropyl)-4-oxo-1,4-dihydroquinoline-3-carboxylic acid [Compound 18a] | – | – | – | – | – | – | – | – | <0.1 | <0.1 | <0.1 | <0.1 | <0.1 | <0.1 | <0.1 | 0.20 |
| N[C@H]1CCN(c2cc3c(cc2F)c(=O)c(C(=O)O)cn3[C@@H]2C[C@@H]2F)C1 (relative stereo) [Compound 9b, 7-[3-(S)-Amino-1-pyrrolidinyl]-6-fluoro-1-(1,2-cis-2-fluorocyclopropyl)-4-oxo-1,4-dihydroquinoline-3-carboxylic acid] | – | – | – | – | – | – | – | – | <0.1 | <0.1 | 0.10 | <0.1 | <0.1 | 0.39 | 0.10 | 0.79 |
| (+)-7-[3-(S)-Amino-1-pyrrolidinyl]-8-chloro-6-fluoro-1-(1,2-cis-2-fluoro-1-cyclopropyl)-4-oxo-1,4-dihydroquinoline-3-carboxylic acid [Compound 13a] | – | – | – | – | – | – | – | – | <0.1 | <0.1 | <0.1 | <0.1 | <0.1 | <0.1 | <0.1 | 0.20 |
